Results as given in patent publication US20200024278A1, “COMPOSITION COMPRISING ANTIBIOTIC COMPOUND AND AN HETEROCYCLIC COMPOUND AND THEIR USE IN PREVENTING OR TREATING BACTERIAL INFECTIONS” (MUTABILIS, priority 2016, published 2020).

Tests used:
ECO 190317 [1] = test: MIC, broth microdilution (CLSI), substance alone or ATB combined with compound at 4 or 8 μg/mL; type: cell-based, E. coli; conditions: Escherichia coli; substance alone; ECO 190317; read-out: MIC
Outline: (§1)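 CLSI broth microdilution in cation-adjusted Mueller-Hinton broth, 5·10^5 CFU/mL log-phase inoculum, 16-20 h at 35 °C in ambient air. Fosfomycin assays supplemented with 25 μg/ml glucose-6-phosphate.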

ECO UFR39 = test: as above; type: cell-based, E. coli; conditions: Escherichia coli; substance alone; ECO UFR39; read-out: MIC
Outline: as §1

KPN BAA-1898 = test: as above; type: cell-based, K. pneumoniae; conditions: Klebsiella pneumoniae, BAA1898; substance alone; KPN BAA-1898; read-out: MIC
Outline: as §1

KPN UFR42 = test: as above; type: cell-based, K. pneumoniae; conditions: Klebsiella pneumoniae; substance alone; KPN UFR42; read-out: MIC
Outline: as §1

ECL P99 [2] = test: as above; type: cell-based, E. cloacae; conditions: Enterobacter cloacae; substance alone; ECL P99; read-out: MIC
Outline: as §1

PAE 105250 = test: as above; type: cell-based, P. aeruginosa; conditions: PAE 105250; for MIC ATB combined with compound: compound @8 μg/ml; for MIC: Pseudomonas aeruginosa, substance alone, read-out: MIC
Outline: as §1

PAE UFR48 [3] = test: as above; type: cell-based, P. aeruginosa; conditions: PAE UFR48; for MIC ATB combined with compound: compound @8 μg/ml; for MIC: Pseudomonas aeruginosa, substance alone, read-out: MIC
Outline: as §1

PAE UFR90 [4] = test: as above; type: cell-based, P. aeruginosa; conditions: PAE UFR90; for MIC ATB combined with compound: compound @8 μg/ml; for MIC: Pseudomonas aeruginosa, substance alone, read-out: MIC
Outline: as §1

SAU 29213 = test: as above; type: cell-based, S. aureus; conditions: for MIC ATB combined with compound: compound @8 μg/ml, SAU 29213; for MIC: Staphylococcus aureus, substance alone, SAU 29213 (MSSA 29213), read-out: MIC
Outline: as §1

SPN 49619 = test: as above; type: cell-based, S. pneumoniae; conditions: SPN 49619; for MIC ATB combined with compound: compound @8 μg/ml; for MIC: Streptococcus pneumoniae, substance alone, read-out: MIC
Outline: as §1

PAE UFR48 [5] = test: Fractional Inhibitory Concentration Index, checkerboard assay; type: cell-based, P. aeruginosa
Method: (§2) Method 2: Determination of the Fractional Inhibitory Concentration Index
(§3) Serial 2-fold dilutions of each antibiotic tested were prepared in ca-MHB and mixed in each well of a 96-well microtiter plate so that each row (and column) contained a fixed amount of one agent and increasing amounts of the second agent. The range of drug concentrations used in the checkerboard analysis was such that the dilution range encompassed the MIC for each drug used in the analysis. Broth microdilution plates were inoculated with each strain (Table 3) to yield 5.10^5 CFU/mL in a 100 μL final volume and incubated for 18 h at 35° C. in ambient air. Assays including Fosfomycin were supplemented with 25 μg/ml of Glucose-6-phosphate. MICs were determined after overnight incubation, and the fractional inhibitory concentration (FIC) index was calculated for each well. The FIC index (FICI) was calculated for each combination according to the equation FICI=FICa+FICb=(MIC of drug A in combination/MIC of drug A alone)+(MIC of drug B in combination/MIC of drug B alone). The FICI was interpreted as follows: synergy, FICI […]; indifference, 0.5<FIC<4; and antagonism, FICI>4. The checkerboard assays were performed in duplicate.

PAE UFR90 [6] = test: as above; type: cell-based, P. aeruginosa
Method: as §2, §3

KPN UFR68 = test: as above; type: cell-based, K. pneumoniae
Method: as §2, §3

ECL P99 [7] = test: as above; type: cell-based, E. cloacae
Method: as §2, §3

ECO 190317 [8] = test: as above; type: cell-based, E. coli
Method: as §2, §3

NCCn1c2c(sc1=O)C1CN(C2)C(=O)N1OS(=O)(=O)[O-].[Na+] (stereo not drawn) [Example 3, sodium and 2,2,2-trifluoroacetate [5-(2-azaniumethyl)-4,9-dioxo-3-thia-5,8,10-triaza-tricyclo[6.2.1.0^2,6]undec-2(6)-en-10-yl] sulfate]
MIC (ECO 190317 [1]): 0.25 µg/mL
MIC (ECO UFR39): 0.5 µg/mL
MIC (KPN BAA-1898): 16 µg/mL
MIC (KPN UFR42): 16 µg/mL
MIC (ECL P99 [2]): 0.5 µg/mL
MIC ATB combined with compound (PAE 105250; ATB ATM): <0.031 µg/mL
MIC ATB combined with compound (PAE 105250; ATB FEP): <0.031 µg/mL
MIC ATB combined with compound (PAE 105250; ATB FOS): 16 µg/mL
MIC ATB combined with compound (PAE 105250; ATB MEM): 0.063 µg/mL
MIC ATB combined with compound (PAE 105250; ATB PIP): 0.063 µg/mL
MIC (PAE 105250): 8 µg/mL
MIC ATB combined with compound (PAE UFR48 [3]; ATB ATM): 2 µg/mL
MIC ATB combined with compound (PAE UFR48 [3]; ATB FEP): <0.031 µg/mL
MIC ATB combined with compound (PAE UFR48 [3]; ATB FOS): 2 µg/mL
MIC ATB combined with compound (PAE UFR48 [3]; ATB MEM): <=0.031 μg/mL
MIC ATB combined with compound (PAE UFR48 [3]; ATB PIP): <0.031 µg/mL
MIC (PAE UFR48 [3]): 8 µg/mL
MIC ATB combined with compound (PAE UFR90 [4]; ATB ATM): <0.031 µg/mL
MIC ATB combined with compound (PAE UFR90 [4]; ATB FEP): <0.031 µg/mL
MIC ATB combined with compound (PAE UFR90 [4]; ATB FOS): <0.125 µg/mL
MIC ATB combined with compound (PAE UFR90 [4]; ATB MEM): <0.031 µg/mL
MIC ATB combined with compound (PAE UFR90 [4]; ATB PIP): <0.031 µg/mL
MIC (PAE UFR90 [4]): 8 µg/mL
MIC ATB combined with compound (SAU 29213; ATB ATM): >32 µg/mL
MIC ATB combined with compound (SAU 29213; ATB FEP): 1 µg/mL
MIC ATB combined with compound (SAU 29213; ATB FOS): <=0.125 μg/mL
MIC ATB combined with compound (SAU 29213; ATB MEM): 0.063 µg/mL
MIC ATB combined with compound (SAU 29213; ATB PIP): 0.5 µg/mL
MIC (SAU 29213): 32 µg/mL
MIC ATB combined with compound (SPN 49619; ATB ATM): <0.031 µg/mL
MIC ATB combined with compound (SPN 49619; ATB FEP): <0.031 µg/mL
MIC ATB combined with compound (SPN 49619; ATB FOS): <=0.125 μg/mL
MIC ATB combined with compound (SPN 49619; ATB MEM): <0.031 µg/mL
MIC ATB combined with compound (SPN 49619; ATB PIP): <0.031 µg/mL
MIC (SPN 49619): 1 µg/mL
FIC index min (PAE UFR48 [5]; compound +ATM): 0.13
FIC index min (PAE UFR48 [5]; compound +FEP): 0.50
FIC index min (PAE UFR48 [5]; compound +FOS): 0.34
FIC index min (PAE UFR48 [5]; compound +MEM): 0.75
FIC index min (PAE UFR48 [5]; compound +PIP): 0.31
FIC index min (PAE UFR90 [6]; compound +ATM): 0.75
FIC index min (PAE UFR90 [6]; compound +FEP): 0.32
FIC index min (PAE UFR90 [6]; compound +FOS): 0.88
FIC index min (PAE UFR90 [6]; compound +MEM): 0.75
FIC index min (PAE UFR90 [6]; compound +PIP): 0.63
FIC index min (KPN UFR68; compound +ATM): 0.049
FIC index min (KPN UFR68; compound +FEP): 0.021
FIC index min (KPN UFR68; compound +FOS): 0.080
FIC index min (KPN UFR68; compound +MEM): 0.16
FIC index min (KPN UFR68; compound +PIP): 0.10
FIC index min (ECL P99 [7]; compound +ATM): 0.28
FIC index min (ECL P99 [7]; compound +FEP): 0.31
FIC index min (ECL P99 [7]; compound +FOS): ≤0.13
FIC index min (ECL P99 [7]; compound +MEM): 0.54
FIC index min (ECL P99 [7]; compound +PIP): 0.13
FIC index min (ECO 190317 [8]; compound +ATM): 0.27
FIC index min (ECO 190317 [8]; compound +FEP): 0.19
FIC index min (ECO 190317 [8]; compound +FOS): 0.66
FIC index min (ECO 190317 [8]; compound +MEM): 0.56
FIC index min (ECO 190317 [8]; compound +PIP): ≤0.5

O=C1N2CC(c3cccnc3)=CC(C2)N1OS(=O)(=O)[O-].[Na+] (stereo not drawn) [Example 8, sodium [3-(3-pyridyl)-7-oxo-1,6-diazabicyclo[3.2.1]oct-3-en-6-yl] sulfate]
MIC (ECO 190317 [1]): 4 µg/mL
MIC (ECO UFR39): 4 µg/mL
MIC (KPN BAA-1898): 8 µg/mL
MIC (KPN UFR42): 16 µg/mL
MIC (ECL P99 [2]): 8 µg/mL
MIC ATB combined with compound (PAE 105250; ATB ATM): 8 µg/mL
MIC ATB combined with compound (PAE 105250; ATB FEP): 4 µg/mL
MIC ATB combined with compound (PAE 105250; ATB FOS): 128 µg/mL
MIC ATB combined with compound (PAE 105250; ATB MEM): 2 µg/mL
MIC ATB combined with compound (PAE 105250; ATB PIP): >32 µg/mL
MIC (PAE 105250): > 32 µg/mL
MIC ATB combined with compound (PAE UFR48 [3]; ATB ATM): 16 µg/mL
MIC ATB combined with compound (PAE UFR48 [3]; ATB FEP): 32 µg/mL
MIC ATB combined with compound (PAE UFR48 [3]; ATB FOS): 32 µg/mL
MIC ATB combined with compound (PAE UFR48 [3]; ATB MEM): 4 µg/mL
MIC ATB combined with compound (PAE UFR48 [3]; ATB PIP): >32 µg/mL
MIC (PAE UFR48 [3]): > 128 µg/mL
MIC ATB combined with compound (PAE UFR90 [4]; ATB ATM): 16 µg/mL
MIC ATB combined with compound (PAE UFR90 [4]; ATB FEP): 4 µg/mL
MIC ATB combined with compound (PAE UFR90 [4]; ATB FOS): 8 µg/mL
MIC ATB combined with compound (PAE UFR90 [4]; ATB MEM): 2 µg/mL
MIC ATB combined with compound (PAE UFR90 [4]; ATB PIP): >32 µg/mL
MIC (PAE UFR90 [4]): > 128 µg/mL
MIC ATB combined with compound (SAU 29213; ATB ATM): <0.031 µg/mL
MIC ATB combined with compound (SAU 29213; ATB FEP): <=0.031 μg/mL
MIC ATB combined with compound (SAU 29213; ATB FOS): 0.25 µg/mL
MIC ATB combined with compound (SAU 29213; ATB MEM): <0.031 µg/mL
MIC ATB combined with compound (SAU 29213; ATB PIP): <0.031 µg/mL
MIC (SAU 29213): 8 µg/mL
MIC ATB combined with compound (SPN 49619; ATB ATM): <=0.031 μg/mL
MIC ATB combined with compound (SPN 49619; ATB FEP): <0.031 µg/mL
MIC ATB combined with compound (SPN 49619; ATB FOS): <0.125 µg/mL
MIC ATB combined with compound (SPN 49619; ATB MEM): <0.031 µg/mL
MIC ATB combined with compound (SPN 49619; ATB PIP): <0.031 µg/mL
MIC (SPN 49619): 4 µg/mL
FIC index min (PAE UFR48 [5]; compound +ATM): ≤0.13
FIC index min (PAE UFR48 [5]; compound +FEP): ≤0.5
FIC index min (PAE UFR48 [5]; compound +FOS): ≤0.25
FIC index min (PAE UFR48 [5]; compound +MEM): 1.0
FIC index min (PAE UFR48 [5]; compound +PIP): ≤0.31
FIC index min (PAE UFR90 [6]; compound +ATM): ≤0.75
FIC index min (PAE UFR90 [6]; compound +FEP): ≤0.25
FIC index min (PAE UFR90 [6]; compound +FOS): ≤0.62
FIC index min (PAE UFR90 [6]; compound +MEM): ≤0.56
FIC index min (PAE UFR90 [6]; compound +PIP): ≤0.25
FIC index min (KPN UFR68; compound +ATM): ≤0.07
FIC index min (KPN UFR68; compound +FEP): ≤0.08
FIC index min (KPN UFR68; compound +FOS): 0.75
FIC index min (KPN UFR68; compound +MEM): ≤0.07
FIC index min (KPN UFR68; compound +PIP): ≤0.07
FIC index min (ECL P99 [7]; compound +ATM): 0.53
FIC index min (ECL P99 [7]; compound +FEP): 0.25
FIC index min (ECL P99 [7]; compound +FOS): ≤0.28
FIC index min (ECL P99 [7]; compound +MEM): 0.75
FIC index min (ECL P99 [7]; compound +PIP): 0.16
FIC index min (ECO 190317 [8]; compound +ATM): 0.13
FIC index min (ECO 190317 [8]; compound +FEP): 0.13
FIC index min (ECO 190317 [8]; compound +FOS): 0.63
FIC index min (ECO 190317 [8]; compound +MEM): 0.57
FIC index min (ECO 190317 [8]; compound +PIP): ≤0.14
